Test results as given in paper PMC6311893, “Computational prediction of plasma protein binding of cyclic peptides from small molecule experimental data using sparse modeling techniques” (BMC Bioinformatics, 2018).
Read-outs that look alike come from different tables or passages of the source. Positions of bridges follow the written chain, without caps; N, C: chain ends. Residues, ends and D or L forms follow the SMILES beside them.

Columns and labels:
[1] = system: plasma protein; details: cited from earlier work
[2] = in vitro; assay type: in vitro ADME; details: human, plasma, Exp. PPB (fb*)
Method: As the number of publicly available data of cyclic peptide drugs is small compared to that of small molecule, we additionally designed and experimented with 16 cyclic peptides composed exclusively of natural amino acids. First, linear peptides were synthesized. Then, circularization was achieved by making a disulfide bond between N-terminal and C-terminal cysteine residues and confirmed by TOF/MS and HPLC analyses. Human PPB values fb were determined by the equilibrium dialysis method. Frozen human plasma was thawed immediately at room temperature. Then, the plasma was centrifuged at 3220 g for 10 min to remove clots and the supernatant was collected into a fresh tube. The working solutions of test compounds were prepared in DMSO at a concentration of 200 μM. Then, 3 μL of the working solution was removed for mixing with 597 μL of human plasma to achieve a final concentration of 1 μM (0.5% DMSO). The plasma samples were vortexed thoroughly. The dialysis membranes (HTD 96a/b Dialysis Membrane Strips MWCO 12-14 K, Cat. #1101, Batch# 1141 (12–17)) were soaked in ultrapure water for 60 min to separate the strips, then in 20% ethanol for 20 min, and finally in the dialysis buffer (100 mM sodium phosphate and 150 mM NaCl) for 20 min. The dialysis apparatus was assembled according to the manufacturer’s instructions. Each cell was filled with the spiked plasma sample and dialyzed against equal volume of the dialysis buffer. The assay was performed in duplicate. The dialysis plate was sealed and incubated in an incubator at 37 °C with 5% CO2 at 100 rpm for 6 h. At the end of incubation, the seal was removed and 50 μL of samples from both buffer and plasma chambers were transferred to wells of a 96-well plate. 50 μL of blank plasma was added to each buffer sample and an equal volume of phosphate buffered saline was supplemented to the collected plasma sample. […] Samples in the plate were vortexed for 5 min and centrifuged at 3220 g for 30 min at 4 °C. Then, the supernatant was transferred to a new 96-well plate with 100 μL or 200 μL water (depending on the LC-MS signal response and peak shape) for LC-MS/MS analysis.

[3] = system: plasma protein; details: cited from earlier work; remark: listed apart in the source
[4] = fraction bound (0-1), public cyclic peptide drug dataset, ref DrugBank [39]
[5] = fraction bound to plasma protein, small molecule dataset, sheet 1-SM (Set Dte = test, Dtr = training), ref Ingle et al.
[6] = fraction bound to plasma protein, small molecule dataset, sheet 1-SM, Set Dtr, ref Ingle et al.

Row | Molecule | PPB (fb) [1, 4] | fraction unbound at 6 h, 1 μM [2] | also measured
1 | Lanreotide | 0.79-0.83 |  | 
2 | CC[C@H](C)[C@@H]1NC(=O)[C@H](CCCNC(=N)N)NC(=O)[C@@H](N)CSSC[C@@H](C(=O)O)NC(=O)[C@H](Cc2ccc(O)cc2)NC(=O)[C@H](CCCNC(=N)N)NC(=O)[C@H](CCCCN)NC1=O [Pep.16] (H-CRIKRYC-OH; disulfide 1-7; N-terminus and C-terminus assumed) |  | 0.849 | 
3 | CC(C)C[C@@H]1NC(=O)[C@H](Cc2c[nH]c3ccccc23)NC(=O)[C@H](CC(=O)O)NC(=O)[C@H](CC(=O)O)NC(=O)[C@H](Cc2ccccc2)NC(=O)[C@H](CO)NC(=O)[C@@H](N)CSSC[C@@H](C(=O)O)NC(=O)[C@H](C)NC1=O [Pep.12] (H-CSFDDWLAC-OH; disulfide 1-9; N-terminus and C-terminus assumed) |  | 0.2 | 
4 | CC(C)C[C@@H]1NC(=O)CNC(=O)[C@H](C)NC(=O)[C@@H](N)CSSC[C@@H](C(=O)O)NC(=O)[C@H](C)NC(=O)[C@H](C)NC(=O)[C@H](CC(C)C)NC(=O)[C@H](C(C)C)NC1=O [Pep.9] (H-CAGLVLAAC-OH; disulfide 1-9; N-terminus and C-terminus assumed) |  | 1 | 
5 | CC[C@H](C)[C@@H]1NC(=O)[C@H](Cc2ccc(O)cc2)NC(=O)[C@@H](N)CSSC[C@@H](C(=O)O)NC(=O)CNC(=O)[C@H](CC(C)C)NC(=O)[C@@H]2CCCN2C(=O)[C@H](CC(N)=O)NC(=O)[C@H](CCC(N)=O)NC1=O [Pep.2] (H-CYIQNPLGC-OH; disulfide 1-9; N-terminus and C-terminus assumed) |  | 0.995 | 
6 | CC(C)[C@@H]1NC(=O)[C@H](Cc2c[nH]c3ccccc23)NC(=O)[C@@H](N)CSSC[C@@H](C(=O)O)NC(=O)[C@H](CCC(=O)O)NC(=O)[C@H](Cc2ccccc2)NC(=O)[C@H](CCC(N)=O)NC(=O)[C@@H]2CCCN2C(=O)[C@H](Cc2c[nH]cn2)NC1=O [Pep.10] (H-CWVHPQFEC-OH; disulfide 1-9; N-terminus and C-terminus assumed) |  | 0.633 | 
7 | Daptomycin | 0.85 |  | 
8 | CC(C)[C@@H]1NC(=O)[C@H](C)NC(=O)[C@H](CO)NC(=O)[C@H](Cc2ccc(O)cc2)NC(=O)[C@H](C(C)C)NC(=O)[C@H](Cc2ccccc2)NC(=O)[C@@H](N)CSSC[C@@H](C(=O)O)NC1=O [Pep.15] (H-CFVYSAVC-OH; disulfide 1-8; N-terminus and C-terminus assumed) |  | 0.847 | 
9 | Oritavancin | 0.85 |  | 
10 | CC(C)C[C@@H]1NC(=O)[C@H](Cc2ccc(O)cc2)NC(=O)[C@@H](N)CSSC[C@@H](C(=O)O)NC(=O)CNC(=O)[C@H](Cc2c[nH]cn2)NC(=O)[C@H](Cc2ccc(O)cc2)NC(=O)[C@H](CCC(=O)O)NC(=O)[C@H](C)NC1=O [Pep.13] (H-CYLAEYHGC-OH; disulfide 1-9; N-terminus and C-terminus assumed) |  | 0.651 | 
11 | Pasireotide | 0.88 |  | 
12 | Quinupristin [reference compound] |  |  | PPB (fb) ([3]; plasma): 0.66; PPB (fb) [1]: 0.55-0.78
13 | Polymyxin?B | 0.559 |  | 
14 | C[C@@H]1NC(=O)[C@H](Cc2c[nH]c3ccccc23)NC(=O)[C@H](C)NC(=O)[C@@H]2CCCN2C(=O)[C@H](C)NC(=O)[C@@H](N)CSSC[C@@H](C(=O)O)NC(=O)CNC(=O)[C@H](Cc2c[nH]cn2)NC1=O [Pep.14] (H-CAPAWAHGC-OH; disulfide 1-9; N-terminus and C-terminus assumed) |  | 0.926 | 
15 | Eptifibatide [reference compound] |  |  | PPB (fb) ([3]; plasma): 0.25; PPB (fb) [1]: 0.25
16 | CC(C)[C@@H]1NC(=O)[C@H](CCCCN)NC(=O)[C@H](Cc2c[nH]c3ccccc23)NC(=O)[C@H](C)NC(=O)[C@@H](N)CSSC[C@@H](C(=O)O)NC(=O)[C@H]([C@@H](C)O)NC1=O [Pep.3] (H-CAWKVTC-OH; disulfide 1-7; N-terminus and C-terminus assumed) |  | 1 | 
17 | Oxytocin [reference compound] |  |  | PPB (fb) ([3]; plasma): 0; PPB (fb) [1]: 0.3
18 | CC(C)[C@@H]1NC(=O)[C@H](CCCNC(=N)N)NC(=O)[C@@H]2CCCN2C(=O)[C@H](CCCNC(=N)N)NC(=O)[C@H](Cc2c[nH]c3ccccc23)NC(=O)[C@@H](N)CSSC[C@@H](C(=O)O)NC(=O)[C@H](CCCNC(=N)N)NC(=O)[C@H](C)NC1=O [Pep.5] (H-CWRPRVARC-OH; disulfide 1-9; N-terminus and C-terminus assumed) |  | 1 | 
19 | NC(=O)CC[C@@H]1NC(=O)[C@H](Cc2c[nH]c3ccccc23)NC(=O)[C@@H]2CCCN2C(=O)[C@H](CCC(N)=O)NC(=O)[C@H](CC(N)=O)NC(=O)[C@@H](N)CSSC[C@@H](C(=O)O)NC1=O [Pep.11] (H-CNQPWQC-OH; disulfide 1-7; N-terminus and C-terminus assumed) |  | 1 | 
20 | Telavancin | 0.897 |  | 

Row | Molecule | PPB (fb) [1, 4] | fraction unbound at 6 h, 1 μM [2] | also measured
21 | Desmopressin | 0.5 |  | 
22 | Romidepsin | 0.92-0.94 |  | 
23 | Terlipressin |  |  | PPB (fb) [1]: 0.3
24 | Micafungin [reference compound] | 0.99 |  | PPB (fb) ([3]; plasma): 1
25 | Vasopressin | 0.01 |  | 
26 | Teixobactin |  |  | PPB (fb) [1]: 0.84
27 | NCCCC[C@@H]1NC(=O)[C@H](Cc2c[nH]c3ccccc23)NC(=O)[C@H](Cc2ccccc2)NC(=O)[C@@H]2CCCN2C(=O)[C@H](Cc2ccccc2)NC(=O)[C@@H](N)CSSC[C@@H](C(=O)O)NC(=O)[C@H](Cc2ccc(O)cc2)NC1=O [Pep.4] (H-CFPFWKYC-OH; disulfide 1-8; N-terminus and C-terminus assumed) |  | 0.384 | 
28 | Dactinomycin | 0.05 |  | 
29 | Caspofungin | 0.97 |  | 
30 | Colistin | 0.904-0.929 |  | 
31 | Anidulafungin [reference compound] | 0.99 |  | PPB (fb) ([3]; plasma): 0.84
32 | Dalbavancin |  |  | PPB (fb) [1]: 0.93
33 | Acetyl-Daptomycin | 0.12 |  | 
34 | Vancomycin [reference compound] | 0.55 |  | PPB (fb) ([3]; plasma): 0.37
35 | Cc1nnc(SCC2=C(C(=O)O)N3C(=O)[C@@H](NC(=O)Cn4cnnn4)[C@H]3SC2)s1 [Cefazolin] |  |  | PPB (fb) [3, 5]: 0.83
36 | NC(N)=Nc1nc(CSCCC(N)=NS(N)(=O)=O)cs1 [Famotidine] |  |  | PPB (fb) [3, 6]: 0.16
37 | CN1C(=O)C(O)N=C(c2ccccc2Cl)c2cc(Cl)ccc21 (stereo not shown) [Lormetazepam] |  |  | PPB (fb) ([3]; plasma): 0.86
38 | CNCCc1ccccn1 [betahistine] |  |  | PPB (fb) [3, 5]: 0.03
39 | CC(C)NCC(O)COc1cccc2[nH]ccc12 (stereo not shown) [Pindolol] |  |  | PPB (fb) [3, 6]: 0.48
40 | Fc1ccc([C@@H]2CCNC[C@H]2COc2ccc3c(c2)OCO3)cc1 [Paroxetine] |  |  | PPB (fb) [3, 6]: 0.94
